# Earlier results in patent US20210322464A1 (priority 2020, published 2021).
# Conditions: 1000 μg per day, constant syringe pump infusion for 14 days; cited from earlier work
smiles,measurement,value
O=[Se](O)O [sodium selenite],adverse effects,No adverse effects
